Test results as given in PMC7753147, “High-throughput determination of protein affinities using unmodified peptide libraries in nanomolar scale” (iScience, 2020).

Assays:
gephE = experiment: µSPOT peptide microarray binding assay with recombinant gephE; details: µSPOT peptide microarray, GlyRβ full positional scan, recombinant gephE; intensity normalised to wild-type sequence DLRSNDFSIVGSLPR (=1)
FL-geph = experiment: µSPOT peptide microarray binding assay with full-length geph; details: µSPOT peptide microarray, GlyRβ full positional scan, intensity normalised to wild-type sequence DLRSNDFSIVGSLPR (=1)
native geph = experiment: µSPOT peptide microarray binding assay with native geph from mouse brain lysate; details: µSPOT peptide microarray, GlyRβ full positional scan, native geph from mouse brain lysate; intensity normalised to wild-type sequence DLRSNDFSIVGSLPR (=1)

Sequence	gephE Binding Intensity [norm.] (gephE)	Fl-geph Binding Intensity [norm.] (FL-geph)	Native geph Binding Intensity [norm.] (native geph)
DKRSNDFSIVGSLPR [GlyRβ_Full_Positional_Scan_034]	0.88	0.94	0.53
DLASNDFSIVGSLPR [GlyRβ_Full_Positional_Scan_041]	0.95	1.13	1.3
DLCSNDFSIVGSLPR [GlyRβ_Full_Positional_Scan_057]	0.88	1.14	1.41
DLDSNDFSIVGSLPR [GlyRβ_Full_Positional_Scan_050]	1.09	1.38	1.45
DLESNDFSIVGSLPR [GlyRβ_Full_Positional_Scan_051]	1.03	1.39	1.3
DLFSNDFSIVGSLPR [GlyRβ_Full_Positional_Scan_047]	0.89	1.29	1.18
DLGSNDFSIVGSLPR [GlyRβ_Full_Positional_Scan_042]	0.93	1.02	1.26
DLHSNDFSIVGSLPR [GlyRβ_Full_Positional_Scan_053]	1.01	1.21	1.37
DLISNDFSIVGSLPR [GlyRβ_Full_Positional_Scan_043]	0.9	1.35	1.69
DLKSNDFSIVGSLPR [GlyRβ_Full_Positional_Scan_054]	1.01	1.24	1.21
DLLSNDFSIVGSLPR [GlyRβ_Full_Positional_Scan_044]	0.95	1.28	1.48
DLMSNDFSIVGSLPR [GlyRβ_Full_Positional_Scan_058]	0.77	1.3	1.59
DLNSNDFSIVGSLPR [GlyRβ_Full_Positional_Scan_059]	0.85	1.17	1.28
DLPSNDFSIVGSLPR [GlyRβ_Full_Positional_Scan_045]	0.93	1.47	1.5
DLQSNDFSIVGSLPR [GlyRβ_Full_Positional_Scan_060]	0.91	1.06	1.3
DLRANDFSIVGSLPR [GlyRβ_Full_Positional_Scan_061]	0.98	0.86	1.12
DLRGNDFSIVGSLPR [GlyRβ_Full_Positional_Scan_062]	0.99	0.88	1.16
DLRINDFSIVGSLPR [GlyRβ_Full_Positional_Scan_063]	0.92	0.91	1.05
DLRLNDFSIVGSLPR [GlyRβ_Full_Positional_Scan_064]	0.9	0.89	0.88
DLRPNDFSIVGSLPR [GlyRβ_Full_Positional_Scan_065]	0.89	0.64	0.71

Second part, the sequence after the results:

gephE Binding Intensity [norm.] (gephE)	Fl-geph Binding Intensity [norm.] (FL-geph)	Native geph Binding Intensity [norm.] (native geph)	Sequence
0.99	0.65	0.77	DLRCNDFSIVGSLPR [GlyRβ_Full_Positional_Scan_077]
0.95	1.09	1.34	DLRDNDFSIVGSLPR [GlyRβ_Full_Positional_Scan_070]
0.93	0.97	1.11	DLRENDFSIVGSLPR [GlyRβ_Full_Positional_Scan_071]
0.92	0.92	0.98	DLRFNDFSIVGSLPR [GlyRβ_Full_Positional_Scan_067]
0.92	0.84	0.86	DLRHNDFSIVGSLPR [GlyRβ_Full_Positional_Scan_073]
0.92	0.94	1.05	DLRKNDFSIVGSLPR [GlyRβ_Full_Positional_Scan_074]
1.02	1.08	1.07	DLRMNDFSIVGSLPR [GlyRβ_Full_Positional_Scan_078]
0.92	0.99	0.88	DLRNNDFSIVGSLPR [GlyRβ_Full_Positional_Scan_079]
0.89	0.98	1.04	DLRQNDFSIVGSLPR [GlyRβ_Full_Positional_Scan_080]
0.97	1.06	1.25	DLRRNDFSIVGSLPR [GlyRβ_Full_Positional_Scan_072]
0.93	0.9	0.76	DLRSADFSIVGSLPR [GlyRβ_Full_Positional_Scan_081]
0.99	0.76	0.83	DLRSCDFSIVGSLPR [GlyRβ_Full_Positional_Scan_097]
0.96	0.94	0.98	DLRSDDFSIVGSLPR [GlyRβ_Full_Positional_Scan_090]
0.96	1	0.96	DLRSEDFSIVGSLPR [GlyRβ_Full_Positional_Scan_091]
0.9	0.75	0.55	DLRSFDFSIVGSLPR [GlyRβ_Full_Positional_Scan_087]
0.9	0.9	0.77	DLRSGDFSIVGSLPR [GlyRβ_Full_Positional_Scan_082]
0.9	0.75	0.72	DLRSHDFSIVGSLPR [GlyRβ_Full_Positional_Scan_093]
0.92	0.81	0.55	DLRSIDFSIVGSLPR [GlyRβ_Full_Positional_Scan_083]
0.92	0.79	0.66	DLRSKDFSIVGSLPR [GlyRβ_Full_Positional_Scan_094]
0.92	0.86	0.69	DLRSLDFSIVGSLPR [GlyRβ_Full_Positional_Scan_084]
0.92	0.85	0.91	DLRSMDFSIVGSLPR [GlyRβ_Full_Positional_Scan_098]
0.98	1.04	0.77	DLRSNAFSIVGSLPR [GlyRβ_Full_Positional_Scan_101]
0.81	0.8	0.64	DLRSNCFSIVGSLPR [GlyRβ_Full_Positional_Scan_117]
0.48	0.53	0.32	DLRSNDASIVGSLPR [GlyRβ_Full_Positional_Scan_121, GlyR β 414-428 variant F420A]
0.67	0.63	0.53	DLRSNDCSIVGSLPR [GlyRβ_Full_Positional_Scan_137, GlyR β 414-428 variant F420C]
0.45	0.38	0.26	DLRSNDDSIVGSLPR [GlyRβ_Full_Positional_Scan_130, GlyR β 414-428 variant F420D]
0.42	0.32	0.2	DLRSNDESIVGSLPR [GlyRβ_Full_Positional_Scan_131, GlyR β 414-428 variant F420E]
